The values below come from patent US8791131B2, “Imidazo[1,5]naphthyridine compounds, their pharmaceutical use and compositions” (Pfizer Inc., priority 2008, dated 2014).

For assay [1], the target named is PI3-Kα (Mus musculus (Mouse), UniProt P42337). Nature of the assay: PI3-Kα biochemical assay (in vitro kinase assay, fluorescence polarization).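 Note: Insect-cell-expressed mouse p110/p85 complex converting PI(4,5)P2, product PI(3,4,5)P3 detected by displacing TAMRA-tagged PI(3,4,5)P3 from Grip1 PH domain, lower polarization means more product, room temperature.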 The following applies: Ki calculated from IC50, [ATP]=30 uM, Km=25 uM.
Sequence of PI3-Kα (P42337 whole entry, the tested form may be a part): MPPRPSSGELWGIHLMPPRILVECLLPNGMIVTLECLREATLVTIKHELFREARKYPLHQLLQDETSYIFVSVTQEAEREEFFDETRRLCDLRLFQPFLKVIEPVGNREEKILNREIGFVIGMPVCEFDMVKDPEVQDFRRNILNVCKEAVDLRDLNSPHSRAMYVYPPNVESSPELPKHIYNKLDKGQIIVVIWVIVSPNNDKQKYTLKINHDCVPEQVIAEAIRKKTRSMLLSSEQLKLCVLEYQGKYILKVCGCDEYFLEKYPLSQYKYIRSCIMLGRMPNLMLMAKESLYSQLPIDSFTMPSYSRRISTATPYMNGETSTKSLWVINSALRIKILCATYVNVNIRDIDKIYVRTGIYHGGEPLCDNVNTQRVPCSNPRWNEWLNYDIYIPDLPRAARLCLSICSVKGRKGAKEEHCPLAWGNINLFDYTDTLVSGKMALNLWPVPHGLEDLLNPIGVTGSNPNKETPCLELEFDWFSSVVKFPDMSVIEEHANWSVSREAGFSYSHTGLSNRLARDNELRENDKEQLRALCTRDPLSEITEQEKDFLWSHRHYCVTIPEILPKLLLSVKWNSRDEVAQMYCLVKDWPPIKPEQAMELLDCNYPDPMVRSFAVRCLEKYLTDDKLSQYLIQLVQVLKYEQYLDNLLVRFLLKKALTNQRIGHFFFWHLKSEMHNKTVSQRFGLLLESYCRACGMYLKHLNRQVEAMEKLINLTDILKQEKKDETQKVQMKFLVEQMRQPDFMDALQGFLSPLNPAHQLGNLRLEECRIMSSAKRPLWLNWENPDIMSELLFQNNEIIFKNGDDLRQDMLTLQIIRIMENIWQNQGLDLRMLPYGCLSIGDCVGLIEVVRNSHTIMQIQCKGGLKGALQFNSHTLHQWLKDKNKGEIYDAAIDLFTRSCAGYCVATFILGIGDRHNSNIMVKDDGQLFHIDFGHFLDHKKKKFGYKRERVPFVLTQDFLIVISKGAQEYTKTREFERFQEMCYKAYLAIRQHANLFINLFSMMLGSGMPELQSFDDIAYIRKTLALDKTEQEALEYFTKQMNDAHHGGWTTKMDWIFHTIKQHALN
Sequence of PI3-Kα (P26450 whole entry partner, the tested form may be a part): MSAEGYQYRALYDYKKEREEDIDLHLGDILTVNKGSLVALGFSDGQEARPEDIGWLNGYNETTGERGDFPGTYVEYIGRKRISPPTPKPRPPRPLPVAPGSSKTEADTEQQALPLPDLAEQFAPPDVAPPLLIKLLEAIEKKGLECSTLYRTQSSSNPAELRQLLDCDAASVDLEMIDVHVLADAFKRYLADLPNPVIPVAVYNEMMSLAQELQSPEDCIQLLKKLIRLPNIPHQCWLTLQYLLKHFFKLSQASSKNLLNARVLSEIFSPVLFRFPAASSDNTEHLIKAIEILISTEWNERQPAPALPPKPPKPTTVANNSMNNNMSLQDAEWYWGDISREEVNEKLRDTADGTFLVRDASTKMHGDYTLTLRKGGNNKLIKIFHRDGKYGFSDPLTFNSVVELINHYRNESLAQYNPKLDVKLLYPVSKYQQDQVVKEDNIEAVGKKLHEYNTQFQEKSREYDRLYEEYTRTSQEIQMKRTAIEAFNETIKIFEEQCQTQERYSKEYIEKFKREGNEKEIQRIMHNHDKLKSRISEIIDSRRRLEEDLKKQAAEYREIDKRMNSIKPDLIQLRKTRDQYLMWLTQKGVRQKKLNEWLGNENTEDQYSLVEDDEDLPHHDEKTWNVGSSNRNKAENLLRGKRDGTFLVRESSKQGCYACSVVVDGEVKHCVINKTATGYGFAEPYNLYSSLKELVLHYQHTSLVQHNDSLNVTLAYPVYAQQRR
The target in assay [2] is mTOR (Homo sapiens (Human), UniProt P42345).
Sequence of mTOR (P42345 2156-2469): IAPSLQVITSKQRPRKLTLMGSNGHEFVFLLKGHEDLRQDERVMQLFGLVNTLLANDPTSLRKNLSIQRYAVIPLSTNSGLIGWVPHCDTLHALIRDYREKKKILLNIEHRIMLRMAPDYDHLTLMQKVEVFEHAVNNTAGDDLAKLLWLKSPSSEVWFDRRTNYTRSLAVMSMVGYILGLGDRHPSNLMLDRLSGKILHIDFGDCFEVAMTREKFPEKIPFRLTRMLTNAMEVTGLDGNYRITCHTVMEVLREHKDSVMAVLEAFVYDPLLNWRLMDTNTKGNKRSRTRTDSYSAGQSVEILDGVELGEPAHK
For assay [3], the system named is PI3-K (phosphorylation of AKT at serine 473) in BT20 cells. The experiment in a line: PI3-Kα cellular assay (phospho-AKT Ser473 ELISA in BT20 cells).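 Note: lysates read by ELISA with TMB colour at 450 nm, cells given 0.5% DMSO vehicle serve as positive control and cell-free wells as negative control, duplicate wells per concentration.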 The following applies: Homo sapiens, BT-20, 1 h, read-out: S473 pAKT 10% FBS IC50 (μM). (ELISA stands for enzyme-linked immunosorbent assay.)

Broadly, the Ki is a measure of affinity in units of concentration, obtained from inhibition or displacement. Read a high Ki as a looser hold on the target. A word on the IC50: it is the concentration at which inhibition is half-maximal. As for `COc1ncc(-c2ccc3ncc4c(c3n2)n(C2CCN(CC(=O)N(C)C)CC2)c(=O)n4C)cn1` [Compound 163, 2-{4-[8-(2-methoxypyrimidin-5-yl)-3-methyl-2-oxo-2,3-dihydro-1H-imidazo[4,5-c][1,5]naphthyridin-1-yl]piperidin-1-yl}-N,N-dimethylacetamide], the “PI3Ka Ki” value in assay [1] is 4.7 nM. The same compound gave a Ki in assay [2] of 18.4 nM. The IC50 in assay [3] is 0.037 µM.

Regarding `Cc1ccc(-c2ccc3ncc4c(c3n2)n(C2CCN(c3ncccn3)CC2)c(=O)n4C)cn1` [Compound 165, 3-methyl-8-(6-methylpyridin-3-yl)-1-(1-pyrimidin-2-ylpiperidin-4-yl)-1,3-dihydro-2H-imidazo[4,5-c][1,5]naphthyridin-2-one], the “PI3Ka Ki” value in assay [1] was 3.52 nM. The same compound yielded a Ki in assay [2] of 73.2 nM. The IC50 in assay [3] was determined as 0.0414 µM.

Turning to `Cc1ccc(-c2ccc3ncc4c(c3n2)n(C2CCN(CCO)CC2)c(=O)n4C)cn1` [Compound 166, 1-[1-(2-hydroxyethyl)piperidin-4-yl]-3-methyl-8-(6-methylpyridin-3-yl)-1,3-dihydro-2H-imidazo[4,5-c][1,5]naphthyridin-2-one], the “PI3Ka Ki” value in assay [1] was 1.77 nM. For the same compound, in assay [2], the affinity, expressed as Ki, was 17.6 nM. Moreover, the IC50 in assay [3] was found to be 0.0356 µM.

`Cn1c(=O)n([C@H]2CC[C@H](O)CC2)c2c3nc(-c4cn[nH]c4)ccc3ncc21` [Compound 168, 1-(trans-4-hydroxycyclohexyl)-3-methyl-8-(1H-pyrazol-4-yl)-1,3-dihydro-2H-imidazo[4,5-c][1,5]naphthyridin-2-one]: the “PI3Ka Ki” value in assay [1] was 4.17 nM. For the same compound, the Ki in assay [2] came to 0.204 nM. Also, the 50% inhibitory concentration (IC50) in assay [3] worked out at 0.0197 µM.

As to `Cn1cc(-c2ccc3ncc4c(c3n2)n([C@H]2CC[C@H](O)CC2)c(=O)n4C)cn1` [Compound 170, 1-(trans-4-hydroxycyclohexyl)-3-methyl-8-(1-methyl-1H-pyrazo1-4-yl)-1,3-dihydro-2H-imidazo[4,5-c][1,5]naphthyridin-2-one], in assay [1], the “PI3Ka Ki” value is 7.44 nM. Besides, in assay [2], affinity was put at a Ki of 7.18 nM. Besides, the IC50 in assay [3] was determined as 0.107 µM.

Turning to `Cc1ccc(-c2ccc3ncc4c(c3n2)n(C2CCN(C)CC2)c(=O)n4C)cn1` [Compound 171, 3-methyl-1-(1-methylpiperidin-4-yl)-8-(6-methylpyridin-3-yl)-1,3-dihydro-2H-imidazo[4,5-c][1,5]naphthyridin-2-one], the “PI3Ka Ki” value in assay [1] was 4.26 nM. The compound also had a Ki in assay [2] of 40.1 nM. Further, the IC50 in assay [3] was determined as 0.0228 µM.

As to `Cc1ccc(-c2ccc3ncc4c(c3n2)n(C2CCN(CC(N)=O)CC2)c(=O)n4C)cn1` [Compound 176, 2-{4-[3-methyl-8-(6-methylpyridin-3-yl)-2-oxo-2,3-dihydro-1H-imidazo[4,5-c][1,5]naphthyridin-1-yl]piperidin-1-yl}acetamide], the “PI3Ka Ki” value in assay [1] was 0.882 nM. The Ki in assay [2] worked out at 1.41 nM. The half-maximal inhibitory concentration (IC50) in assay [3] was 0.0187 µM.

Take `Cc1ccc(-c2ccc3ncc4c(c3n2)n(C2CCN(C(=O)CN(C)C)CC2)c(=O)n4C)cn1` [Compound 178, 1-[1-(N,N-dimethylglycyl)piperidin-4-yl]-3-methyl-8-(6-methylpyridin-3-yl)-1,3-dihydro-2H-imidazo[4,5-c][1,5]naphthyridin-2-one]: the “PI3Ka Ki” value in assay [1] is 4.09 nM. The Ki in assay [2] came out at 1.18 nM. The IC50 in assay [3] turned out to be 0.0427 µM.

On to `Cc1ccc(-c2ccc3ncc4c(c3n2)n([C@H]2CC[C@H](O)CC2)c(=O)n4C)cn1` [Compound 179, 1-(trans-4-hydroxycyclohexyl)-3-methyl-8-(6-methylpyridin-3-yl)-1,3-dihydro-2H-imidazo[4,5-c][1,5]naphthyridin-2-one], for which the “PI3Ka Ki” value in assay [1] was 1.03 nM. In assay [2], this compound displayed an inhibitory constant (Ki) of 3.29 nM. Besides, the 50% inhibitory concentration (IC50) in assay [3] was found to be 0.0185 µM.

For `Cc1ccc(-c2ccc3ncc4c(c3n2)n(C2CCN(C(=O)CN)CC2)c(=O)n4C)cn1` [Compound 180, 1-(1-glycylpiperidin-4-yl)-3-methyl-8-(6-methylpyridin-3-yl)-1,3-dihydro-2H-imidazo[4,5-c][1,5]naphthyridin-2-one], the “PI3Ka Ki” value in assay [1] is 0.32 nM. In assay [2], this compound displayed a Ki of 3.84 nM. Besides, the IC50 in assay [3] stood at 0.0689 µM.

Consider `COc1ncc(-c2ccc3ncc4c(c3n2)n(C2CCN(C)CC2)c(=O)n4C)cn1` [Compound 182, 8-(2-methoxypyrimidin-5-yl)-3-methyl-1-(1-methylpiperidin-4-yl)-1,3-dihydro-2H-imidazo[4,5-c][1,5]naphthyridin-2-one], for which the “PI3Ka Ki” value in assay [1] is 27.5 nM. In assay [2], this compound came in with an inhibitory constant (Ki) of 4.51 nM. Further, the IC50 in assay [3] was determined as 0.159 µM.

For the compound `COc1ncc(-c2ccc3ncc4c(c3n2)n(C2CCN(C(=O)CN)CC2)c(=O)n4C)cn1` [Compound 184, 1-(1-glycylpiperidin-4-yl)-8-(2-methoxypyrimidin-5-yl)-3-methyl-1,3-dihydro-2H-imidazo[4,5-c][1,5]naphthyridin-2-one], in assay [1], the “PI3Ka Ki” value was 3.93 nM. In addition, in assay [2], the Ki came out at 13.3 nM. In addition, in assay [3], the half-maximal inhibitory concentration (IC50) was 0.184 µM.

For `COc1ncc(-c2ccc3ncc4c(c3n2)n(C2CCN(CCO)CC2)c(=O)n4C)cn1` [Compound 185, 1-[1-(2-hydroxyethyl)piperidin-4-yl]-8-(2-methoxypyrimidin-5-yl)-3-methyl-1,3-dihydro-2H-imidazo[4,5-c][1,5]naphthyridin-2-one], the “PI3Ka Ki” value in assay [1] was 11.9 nM. This compound also yielded an inhibitory constant (Ki) in assay [2] of 25.2 nM. For the same compound, the 50% inhibitory concentration (IC50) in assay [3] stood at 0.124 µM.

For the compound `COc1ncc(-c2ccc3ncc4c(c3n2)n(C2CCN(C(C)=O)CC2)c(=O)n4C)cn1` [Compound 187, 1-(1-acetylpiperidin-4-yl)-8-(2-methoxypyrimidin-5-yl)-3-methyl-1,3-dihydro-2H-imidazo[4,5-c][1,5]naphthyridin-2-one], the “PI3Ka Ki” value in assay [1] is 3.87 nM. In assay [2], this compound yielded a Ki of 3.74 nM. Moreover, the concentration for half-maximal inhibition (IC50) in assay [3] turned out to be 0.0346 µM.

With `COc1ncc(-c2ccc3ncc4c(c3n2)n(C2CCNCC2)c(=O)n4C)cn1` [Compound 188, 8-(2-methoxypyrimidin-5-yl)-3-methyl-1-piperidin-4-yl-1,3-dihydro-2H-imidazo[4,5-c][1,5]naphthyridin-2-one], the “PI3Ka Ki” value in assay [1] was 8.15 nM. The same compound showed a Ki in assay [2] of 50.4 nM. In addition, the IC50 in assay [3] is 0.333 µM.

Consider `CN(C)c1ccc(-c2ccc3ncc4c(c3n2)n(C2CCNCC2)c(=O)n4C)cn1` [Compound 191, 8-[6-(dimethylamino)pyridin-3-yl]-3-methyl-1-piperidin-4-yl-1,3-dihydro-2H-imidazo[4,5-c][1,5]naphthyridin-2-one], for which the “PI3Ka Ki” value in assay [1] is 0.5 nM. The same compound came in with a Ki in assay [2] of 8.41 nM. Further, the IC50 in assay [3] is 0.0246 µM.

For the compound `N[C@H]1CC[C@H](n2c(=O)[nH]c3cnc4ccc(-c5cnc6ccccc6c5)nc4c32)CC1` [Compound 192, 1-(trans-4-aminocyclohexyl)-8-quinolin-3-yl-1,3-dihydro-2H-imidazo[4,5-c][1,5]naphthyridin-2-one], the “PI3Ka Ki” value in assay [1] is 2.21 nM. The Ki in assay [2] turned out to be 3.33 nM. In assay [3], the half-maximal inhibitory concentration (IC50) stood at 0.402 µM.

Consider `CC(=O)N1CCC(n2c(=O)n(C)c3cnc4ccc(-c5ccc(N(C)C)nc5)nc4c32)CC1` [Compound 195, 1-(1-acetylpiperidin-4-yl)-8-[6-(dimethylamino)pyridin-3-yl]-3-methyl-1,3-dihydro-2H-imidazo[4,5-c][1,5]naphthyridin-2-one], for which the “PI3Ka Ki” value in assay [1] is 0.391 nM. The Ki in assay [2] was 1.72 nM. For the same compound, in assay [3], the IC50 worked out at 0.0172 µM.

Consider `CNC(=O)N1CCC(n2c(=O)n(C)c3cnc4ccc(-c5ccc(N(C)C)nc5)nc4c32)CC1` [Compound 196, 4-{8-[6-(dimethylamino)pyridin-3-yl]-3-methyl-2-oxo-2,3-dihydro-1H-imidazo[4,5-c][1,5]naphthyridin-1-yl}-N-methylpiperidine-1-carboxamide], for which, in assay [1], the “PI3Ka Ki” value is 0.76 nM. The compound further displayed a Ki in assay [2] of 3.01 nM. In assay [3], the IC50 was found to be 0.0243 µM.

On to `CN(C)c1ccc(-c2ccc3ncc4c(c3n2)n(C2CCN(C(N)=O)CC2)c(=O)n4C)cn1` [Compound 197, 4-{8-[6-(dimethylamino)pyridin-3-yl]-3-methyl-2-oxo-2,3-dihydro-1H-imidazo[4,5-c][1,5]naphthyridin-1-yl}piperidine-1-carboxamide], for which the “PI3Ka Ki” value in assay [1] was 1.05 nM. Moreover, the affinity in assay [2], expressed as Ki, was 0.444 nM. The IC50 in assay [3] was 0.0358 µM.

As for `CN(C)c1ccc(-c2ccc3ncc4c(c3n2)n(C2CCN(CCO)CC2)c(=O)n4C)cn1` [Compound 198, 8-[6-(dimethylamino)pyridin-3-yl]-1-[1-(2-hydroxyethyl)piperidin-4-yl]-3-methyl-1,3-dihydro-2H-imidazo[4,5-c][1,5]naphthyridin-2-one], in assay [1], the “PI3Ka Ki” value was 3.13 nM. Also, the affinity in assay [2], expressed as Ki, was 3.52 nM. The 50% inhibitory concentration (IC50) in assay [3] came to 0.0325 µM.

On to `Cn1c(=O)n(C2CCOCC2)c2c3nc(-c4cn[nH]c4)ccc3ncc21` [Compound 199, 3-methyl-8-(1H-pyrazol-4-yl)-1-(tetrahydro-2H-pyran-4-yl)-1,3-dihydro-2H-imidazo[4,5-c][1,5]naphthyridin-2-one], for which the “PI3Ka Ki” value in assay [1] is 11.3 nM. Also, the inhibitory constant (Ki) in assay [2] came out at 1.03 nM. Further, the concentration for half-maximal inhibition (IC50) in assay [3] stood at 0.0183 µM.

Take `Cc1ccc(-c2ccc3ncc4c(c3n2)n(C2CCOCC2)c(=O)n4C)cn1` [Compound 200, 3-methyl-8-(6-methylpyridin-3-yl)-1-(tetrahydro-2H-pyran-4-yl)-1,3-dihydro-2H-imidazo[4,5-c][1,5]naphthyridin-2-one]: the “PI3Ka Ki” value in assay [1] was 1.11 nM. The affinity in assay [2] corresponds to a Ki of 1.72 nM. In addition, the IC50 in assay [3] amounted to 0.0273 µM.

Consider `COc1ncc(-c2ccc3ncc4c(c3n2)n(C2CCOCC2)c(=O)n4C)cn1` [Compound 201, 8-(2-methoxypyrimidin-5-yl)-3-methyl-1-(tetrahydro-2H-pyran-4-yl)-1,3-dihydro-2H-imidazo[4,5-c][1,5]naphthyridin-2-one], for which the “PI3Ka Ki” value in assay [1] was 8.96 nM. Besides, in assay [2], the Ki worked out at 6.42 nM. Moreover, the IC50 in assay [3] worked out at 0.0989 µM.
